In patent US12522596B2, “Compounds as GLP-1R agonists” (Terns Pharmaceuticals, Inc., priority 2021, dated 2026):
Read-outs that look alike come from different tables or passages of the source.

Test: Pharmacokinetics in hGLP-1R mice after oral dosing
Format: in vivo, male C57BL/6J hGLP-1R mouse
Conditions: male, C57BL/6J hGLP-1R, mouse, plasma, po; for concentration at 120 min: hGLP-1R mouse plasma collected at 120 min (IPGTT cohort); for MRT inf: read-out: MRT0-inf; for MRT last: read-out: MRT0-last; for AUC0-inf: read-out: AUC0-inf
Procedure: IPGTT (120 min)—PK bleeding: 40 μL blood samples (all treatment groups) were collected from mice under the jaw at IPGTT-120 min after blood glucose measurement into pre-chilled EDTA-2K tubes. Blood samples were processed for plasma by centrifugation at 4° C., 3200×g for 10 min. 15 μL plasma was stored at −80° C. for PK analysis. From 4 mice in Group 7 of the PD cohort, whole brain was collected after blood is harvested at 120 min post dose, rinsed with saline and patted dry and placed into a pre-weighed tube and stored at −80° C. collected for PK analysis.
PK bleeding group design is described in Table 9.
PK bleeding: 30 μL blood was collected at 0.25, 0.5, 1, 2, 4, and 8 h. Blood samples were processed for plasma by centrifugation at 4° C., 3200×g for 10 min. 12 μL plasma was collected at −80° C. for further analysis. From 3 mice in Group 7 of the PK cohort, whole brain was collected after blood is harvested at 8 hr post dose, rinsed with saline and patted dry and placed into a pre-weighed tube and stored at −80° C. collected for PK analysis.
For plasma: An aliquot of 3 μL sample was protein precipitated with 60 μL internal standard (100 ng/mL Labetalol & 100 ng/ml Dexamethasone & 100 ng/ml Tolbutamide & 100 ng/mL Verapamil & 100 ng/ml Glyburide & 100 ng/ml Celecoxib in ACN) and then the mixture was vortex-mixed for 10 min at 800 rpm and centrifuged for 15 min at 3220×g, 4° C.
The linear/log trapezoidal rule was applied in obtaining the PK parameters. Individual plasma concentration values that were below the lower limit of quantitation (LOQ) were excluded from the PK parameter calculation. The nominal dose levels and nominal sampling times were used in the calculation of all pharmacokinetic parameters.

[1] = 0.3 mg/kg, hGLP-1R mouse plasma, PO 0.3 mg/kg, read-out: Mean Concentration
[2] = 0.3 mg/kg, hGLP-1R mouse plasma, PO 0.3 mg/kg, individual animals, read-out: Concentration
[3] = 0.3 mg/kg, hGLP-1R mouse plasma, PO 0.3 mg/kg, individual mice
[4] = 0.3 mg/kg, hGLP-1R mouse plasma, PO 0.3 mg/kg, mean
[5] = 1 mg/kg, hGLP-1R mouse plasma, PO 1 mg/kg, individual animals, read-out: Concentration
[6] = 1 mg/kg, hGLP-1R mouse plasma, PO 1 mg/kg, read-out: Mean Concentration
[7] = 1 mg/kg, hGLP-1R mouse plasma, PO 1 mg/kg, individual mice
[8] = 1 mg/kg, hGLP-1R mouse plasma, PO 1 mg/kg, mean

## N#Cc1ccc(COc2cccc(C3CCN(Cc4nc5ccc(C(=O)O)cc5n4C[C@@H]4CCO4)CC3)n2)c(F)c1 [Reference Compound A, reference compound]
0.3 mg/kg, PO 0.3 mg/kg, read-out: Mean Concentration
  concentration at 120 min: 7.16 ng/mL
[1]
  concentration at 0.25 h: 24.9 ng/mL
  concentration at 0.5 h: 17.3 ng/mL
  concentration at 1 h: 16 ng/mL
[2]
  concentration at 0.5 h: 19.6 ng/mL
  concentration at 4 h: < 1 ng/mL
0.3 mg/kg, hGLP-1R mouse plasma, PO 0.3 mg/kg
  concentration at 2 h: 3.37 ng/mL
[3]
  MRT inf: 56.6 min
  MRT last: 48.2 min
0.3 mg/kg, hGLP-1R mouse plasma, PO 0.3 mg/kg, individual mice, read-out: T1/2 (converted)
  half-life: 28.9 min
0.3 mg/kg, hGLP-1R mouse plasma, PO 0.3 mg/kg, individual mice, read-out: Tmax
  Tmax: 30 min
[4]
  AUC0-inf: 27.6 ng·h/mL
  MRT inf: 62.4 min
  MRT last: 49.2 min
0.3 mg/kg, hGLP-1R mouse plasma, PO 0.3 mg/kg, mean, read-out: AUC0-last
  AUC(0-t): 24.5 ng·h/mL
0.3 mg/kg, hGLP-1R mouse plasma, PO 0.3 mg/kg, mean, read-out: Cmax
  Cmax: 27 ng/mL
0.3 mg/kg, hGLP-1R mouse plasma, PO 0.3 mg/kg, mean, read-out: T1/2 (converted)
  half-life: 36.2 min
0.3 mg/kg, hGLP-1R mouse plasma, PO 0.3 mg/kg, mean, read-out: Tmax
  Tmax: 25 min
1 mg/kg, hGLP-1R mice, total, PO 1.0 mg/kg, read-out: AUClast Mean
  AUC(0-t): 85.5 ng·h/mL
1 mg/kg, hGLP-1R mice, total, PO 1.0 mg/kg, read-out: Cmax Mean
  Cmax: 49.7 ng/mL
1 mg/kg, hGLP-1R mice, total, PO 1.0 mg/kg, read-out: Tmax Median
  Tmax: 30 min
1 mg/kg, PO 1 mg/kg, read-out: Mean Concentration
  concentration at 120 min: 21.4 ng/mL
[5]
  concentration at 0.25 h: 43.5 ng/mL
  concentration at 0.5 h: 62.8 ng/mL
  concentration at 4 h: 3.59 ng/mL
[6]
  concentration at 0.25 h: 35.7 ng/mL
  concentration at 0.5 h: 48.1 ng/mL
  concentration at 1 h: 39.5 ng/mL
  concentration at 4 h: 3.4 ng/mL
1 mg/kg, hGLP-1R mouse plasma, PO 1 mg/kg
  concentration at 2 h: 14.5 ng/mL
1 mg/kg, hGLP-1R mouse plasma, PO 1 mg/kg, 8 h, read-out: Mean Concentration
  concentration at 8 h: 2.42 ng/mL
[7]
  AUC0-inf: 105 ng·h/mL
  MRT last: 78 min
1 mg/kg, hGLP-1R mouse plasma, PO 1 mg/kg, individual mice, read-out: AUC0-last
  AUC(0-t): 101 ng·h/mL
1 mg/kg, hGLP-1R mouse plasma, PO 1 mg/kg, individual mice, read-out: Cmax
  Cmax: 62.8 ng/mL
1 mg/kg, hGLP-1R mouse plasma, PO 1 mg/kg, individual mice, read-out: Tmax
  Tmax: 30 min
[8]
  AUC0-inf: 93.8 ng·h/mL
  MRT inf: 161 min
  MRT last: 109 min
1 mg/kg, hGLP-1R mouse plasma, PO 1 mg/kg, mean, read-out: AUC0-last
  AUC(0-t): 85.5 ng·h/mL
1 mg/kg, hGLP-1R mouse plasma, PO 1 mg/kg, mean, read-out: Cmax
  Cmax: 49.7 ng/mL
1 mg/kg, hGLP-1R mouse plasma, PO 1 mg/kg, mean, read-out: T1/2 (converted)
  half-life: 119 min
1 mg/kg, hGLP-1R mouse plasma, PO 1 mg/kg, mean, read-out: Tmax
  Tmax: 40 min
3 mg/kg, hGLP-1R mice, oral, across the doses tested (0.3, 1 and, for Compound 2, 3 mg/kg), read-out: median Tmax
  Tmax: 30 min
hGLP-1R male mice, oral, across doses, read-out: terminal T1/2
  half-life: < 120 min
